# Test results from the kinase profiling compilation of Christmann-Franck et al. (2016).
# Experiments:
# Assay in all cases: radiometric filter-binding kinase assay
# [1] = tested on: AKT1 (human), P31749 [S473D]
# [2] = tested on: AKT2 (human), P31751 [S474D]
# CSNK2A1 (human) = CSNK2A1 (human) (UniProt P68400)
# DYRK3 (human) = DYRK3 (human) (UniProt O43781)
# EPHA2 (human) = EPHA2 (human) (UniProt P29317)
# EPHB1 (human) = EPHB1 (human) (UniProt P54762)
# FGFR1 (human) = FGFR1 (human) (UniProt P11362)
# Chain of FGFR1 (human) (P11362 whole entry, looked up): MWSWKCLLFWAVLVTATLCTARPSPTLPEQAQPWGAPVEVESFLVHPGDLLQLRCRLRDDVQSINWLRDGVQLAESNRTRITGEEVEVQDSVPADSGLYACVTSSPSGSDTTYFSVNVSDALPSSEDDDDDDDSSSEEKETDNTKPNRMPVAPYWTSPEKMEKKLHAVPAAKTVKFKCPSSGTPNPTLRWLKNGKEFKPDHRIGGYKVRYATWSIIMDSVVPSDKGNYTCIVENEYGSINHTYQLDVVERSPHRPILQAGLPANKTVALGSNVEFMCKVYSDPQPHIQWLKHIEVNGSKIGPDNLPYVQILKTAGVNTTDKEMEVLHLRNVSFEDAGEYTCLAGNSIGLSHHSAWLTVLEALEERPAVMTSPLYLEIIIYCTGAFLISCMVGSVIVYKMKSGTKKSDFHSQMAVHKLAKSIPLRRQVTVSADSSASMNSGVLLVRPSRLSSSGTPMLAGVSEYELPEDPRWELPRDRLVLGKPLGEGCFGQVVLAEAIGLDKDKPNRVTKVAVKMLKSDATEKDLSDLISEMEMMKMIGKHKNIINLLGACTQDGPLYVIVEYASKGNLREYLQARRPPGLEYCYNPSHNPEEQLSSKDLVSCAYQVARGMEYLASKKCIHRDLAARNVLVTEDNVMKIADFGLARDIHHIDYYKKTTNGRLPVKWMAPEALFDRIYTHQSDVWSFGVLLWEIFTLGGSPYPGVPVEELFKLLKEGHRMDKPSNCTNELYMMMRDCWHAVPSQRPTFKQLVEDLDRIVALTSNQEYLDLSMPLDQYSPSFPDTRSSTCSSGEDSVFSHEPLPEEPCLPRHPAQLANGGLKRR
# GSK3B (human) = GSK3B (human) (UniProt P49841)
# INSR (human) = INSR (human) (UniProt P06213)
# INSRR (human) = INSRR (human) (UniProt P14616)
# IRAK4 (human) = IRAK4 (human) (UniProt Q9NWZ3)
# Chain of IRAK4 (human) (Q9NWZ3 whole entry, looked up): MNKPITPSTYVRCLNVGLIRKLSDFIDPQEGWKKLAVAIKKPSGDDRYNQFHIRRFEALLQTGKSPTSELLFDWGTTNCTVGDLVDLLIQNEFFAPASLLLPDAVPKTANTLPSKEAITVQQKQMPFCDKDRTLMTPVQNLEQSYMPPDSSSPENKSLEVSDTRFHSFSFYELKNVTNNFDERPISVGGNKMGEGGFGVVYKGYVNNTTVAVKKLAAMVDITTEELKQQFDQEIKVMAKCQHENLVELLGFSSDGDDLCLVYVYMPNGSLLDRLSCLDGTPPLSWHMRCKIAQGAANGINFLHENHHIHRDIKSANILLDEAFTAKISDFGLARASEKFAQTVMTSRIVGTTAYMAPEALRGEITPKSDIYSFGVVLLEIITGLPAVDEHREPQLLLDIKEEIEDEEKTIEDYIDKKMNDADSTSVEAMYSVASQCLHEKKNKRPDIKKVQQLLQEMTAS
# LCK (mouse) = details: accession and sequence are those of the human protein
# MAP2K1 (human) = MAP2K1 (human) (UniProt Q02750)
# MAP2K6 (human) = MAP2K6 (human) (UniProt P52564)
# MAP3K9 (human) = MAP3K9 (human) (UniProt P80192)
# MAPK10 (human) = MAPK10 (human) (UniProt P53779)
# Chain of MAPK10 (human) (P53779 whole entry, looked up): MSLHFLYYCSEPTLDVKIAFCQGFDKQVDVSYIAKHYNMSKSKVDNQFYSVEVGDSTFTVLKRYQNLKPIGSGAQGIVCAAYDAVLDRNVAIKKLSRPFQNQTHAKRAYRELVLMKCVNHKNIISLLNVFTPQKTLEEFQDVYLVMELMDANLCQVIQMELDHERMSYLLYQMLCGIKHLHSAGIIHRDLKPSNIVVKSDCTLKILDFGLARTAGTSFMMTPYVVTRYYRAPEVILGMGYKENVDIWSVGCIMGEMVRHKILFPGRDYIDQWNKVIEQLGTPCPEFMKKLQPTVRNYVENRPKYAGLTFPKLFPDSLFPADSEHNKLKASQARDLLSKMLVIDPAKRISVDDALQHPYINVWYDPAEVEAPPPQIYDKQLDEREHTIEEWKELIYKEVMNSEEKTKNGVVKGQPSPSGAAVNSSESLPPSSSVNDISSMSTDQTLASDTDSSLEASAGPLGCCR
# MAPK11 (human) = MAPK11 (human) (UniProt Q15759)
# Chain of MAPK11 (human) (Q15759 whole entry, looked up): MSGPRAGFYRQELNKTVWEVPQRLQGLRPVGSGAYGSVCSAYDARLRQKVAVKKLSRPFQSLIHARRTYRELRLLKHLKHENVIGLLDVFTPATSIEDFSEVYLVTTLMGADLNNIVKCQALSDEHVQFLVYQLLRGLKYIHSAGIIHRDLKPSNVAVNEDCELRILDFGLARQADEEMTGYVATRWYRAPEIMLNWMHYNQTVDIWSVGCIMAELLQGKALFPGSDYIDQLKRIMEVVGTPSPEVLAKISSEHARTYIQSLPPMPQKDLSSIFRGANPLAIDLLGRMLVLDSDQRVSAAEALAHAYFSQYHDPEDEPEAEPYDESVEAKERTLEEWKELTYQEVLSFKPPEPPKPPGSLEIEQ
# MAPK13 (human) = MAPK13 (human) (UniProt O15264)
# Chain of MAPK13 (human) (O15264 whole entry, looked up): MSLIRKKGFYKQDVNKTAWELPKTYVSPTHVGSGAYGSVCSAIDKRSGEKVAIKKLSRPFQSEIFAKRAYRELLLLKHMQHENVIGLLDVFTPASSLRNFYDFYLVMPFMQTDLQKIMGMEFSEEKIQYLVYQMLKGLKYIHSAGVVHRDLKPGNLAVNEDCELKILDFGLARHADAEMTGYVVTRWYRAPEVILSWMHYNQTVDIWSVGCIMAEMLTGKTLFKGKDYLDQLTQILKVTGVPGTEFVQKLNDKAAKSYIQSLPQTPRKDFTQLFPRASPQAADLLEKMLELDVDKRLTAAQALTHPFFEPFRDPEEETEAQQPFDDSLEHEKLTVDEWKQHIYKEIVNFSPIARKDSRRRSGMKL
# MARK1 (human) = MARK1 (human) (UniProt Q9P0L2)
# MARK2 (human) = MARK2 (human) (UniProt Q7KZI7)
# MKNK1 (human) = MKNK1 (human) (UniProt Q9BUB5)
# MYLK (human) = MYLK (human) (UniProt Q15746)
# NEK2 (human) = NEK2 (human) (UniProt P51955)
# NEK6 (human) = NEK6 (human) (UniProt Q9HC98)
# Chain of NEK6 (human) (Q9HC98 whole entry, looked up): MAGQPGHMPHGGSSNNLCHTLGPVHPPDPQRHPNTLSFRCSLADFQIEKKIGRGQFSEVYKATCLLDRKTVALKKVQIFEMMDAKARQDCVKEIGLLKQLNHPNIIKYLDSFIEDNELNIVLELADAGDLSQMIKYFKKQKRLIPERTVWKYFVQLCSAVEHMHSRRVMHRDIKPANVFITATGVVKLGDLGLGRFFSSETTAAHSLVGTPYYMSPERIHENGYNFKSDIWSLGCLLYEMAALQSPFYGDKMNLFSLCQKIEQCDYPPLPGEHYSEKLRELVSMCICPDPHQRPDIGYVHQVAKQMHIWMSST
# [3] = tested on: PAK2 (human), Q13177 [T402E]
# PHKG1 (human) = PHKG1 (human) (UniProt Q16816)
# PIM2 (human) = PIM2 (human) (UniProt Q9P1W9)
# PIM3 (human) = PIM3 (human) (UniProt Q86V86)
# PKN2 (human) = PKN2 (human) (UniProt Q16513)
# Chain of PKN2 (human) (Q16513 whole entry, looked up): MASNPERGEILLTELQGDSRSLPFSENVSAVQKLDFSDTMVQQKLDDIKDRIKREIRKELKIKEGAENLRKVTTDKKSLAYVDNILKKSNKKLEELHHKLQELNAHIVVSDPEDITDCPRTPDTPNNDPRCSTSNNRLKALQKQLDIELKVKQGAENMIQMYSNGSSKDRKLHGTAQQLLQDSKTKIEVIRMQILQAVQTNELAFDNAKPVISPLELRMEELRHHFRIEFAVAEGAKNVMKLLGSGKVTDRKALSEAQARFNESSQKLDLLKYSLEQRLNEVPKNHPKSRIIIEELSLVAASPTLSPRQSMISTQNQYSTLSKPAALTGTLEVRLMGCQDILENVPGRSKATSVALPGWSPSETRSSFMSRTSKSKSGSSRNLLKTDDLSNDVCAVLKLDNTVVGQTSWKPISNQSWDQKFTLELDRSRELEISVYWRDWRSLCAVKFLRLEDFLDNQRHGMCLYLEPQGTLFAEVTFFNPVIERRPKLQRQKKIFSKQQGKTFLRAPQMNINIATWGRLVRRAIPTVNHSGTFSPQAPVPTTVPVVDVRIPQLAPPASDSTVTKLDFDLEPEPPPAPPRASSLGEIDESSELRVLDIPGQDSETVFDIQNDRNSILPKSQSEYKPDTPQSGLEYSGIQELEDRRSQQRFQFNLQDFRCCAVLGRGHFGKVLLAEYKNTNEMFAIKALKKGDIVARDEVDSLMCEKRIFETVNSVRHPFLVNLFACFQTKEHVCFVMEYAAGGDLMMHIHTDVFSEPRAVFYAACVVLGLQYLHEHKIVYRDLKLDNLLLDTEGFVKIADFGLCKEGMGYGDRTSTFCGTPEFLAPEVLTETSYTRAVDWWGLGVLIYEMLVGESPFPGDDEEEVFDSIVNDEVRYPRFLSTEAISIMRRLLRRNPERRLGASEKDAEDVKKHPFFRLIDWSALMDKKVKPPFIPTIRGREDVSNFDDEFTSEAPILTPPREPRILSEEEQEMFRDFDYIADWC
# ROCK2 (rat) = details: accession and sequence are those of the human protein
# [4] = tested on: RPS6KB1 (human), P23443 [T412E]
# SRPK1 (human) = SRPK1 (human) (UniProt Q96SB4)
# [5] = molecular target: STK11 CAB39 STRADA (human) (UniProt Q9Y376+Q7RTN6+Q15831)
# Chain of STK11 CAB39 STRADA (human) (Q15831 whole entry, looked up): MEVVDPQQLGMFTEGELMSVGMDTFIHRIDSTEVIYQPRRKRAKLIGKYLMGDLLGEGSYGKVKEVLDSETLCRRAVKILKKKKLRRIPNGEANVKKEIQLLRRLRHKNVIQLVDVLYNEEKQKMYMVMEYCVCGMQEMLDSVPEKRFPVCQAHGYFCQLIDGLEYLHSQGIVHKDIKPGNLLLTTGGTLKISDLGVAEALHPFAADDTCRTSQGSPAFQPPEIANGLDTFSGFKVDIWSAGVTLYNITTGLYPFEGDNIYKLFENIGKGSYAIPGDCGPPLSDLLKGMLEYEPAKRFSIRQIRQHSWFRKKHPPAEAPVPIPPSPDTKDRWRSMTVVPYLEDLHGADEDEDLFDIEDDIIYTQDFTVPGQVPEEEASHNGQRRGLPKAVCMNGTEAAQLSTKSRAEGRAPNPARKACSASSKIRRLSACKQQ
# Chain of STK11 CAB39 STRADA (human) (Q7RTN6 whole entry, looked up): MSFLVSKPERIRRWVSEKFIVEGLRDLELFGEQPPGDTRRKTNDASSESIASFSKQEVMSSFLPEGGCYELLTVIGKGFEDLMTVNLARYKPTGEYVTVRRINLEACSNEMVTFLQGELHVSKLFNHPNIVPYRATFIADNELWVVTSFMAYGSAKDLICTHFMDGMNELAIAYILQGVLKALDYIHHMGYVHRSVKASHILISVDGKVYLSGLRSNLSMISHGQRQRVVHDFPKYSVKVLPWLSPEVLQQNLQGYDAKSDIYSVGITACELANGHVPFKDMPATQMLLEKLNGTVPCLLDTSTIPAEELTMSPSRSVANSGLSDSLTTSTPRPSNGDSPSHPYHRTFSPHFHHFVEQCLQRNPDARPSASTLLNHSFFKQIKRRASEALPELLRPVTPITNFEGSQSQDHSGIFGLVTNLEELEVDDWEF
# Chain of STK11 CAB39 STRADA (human) (Q9Y376 whole entry, looked up): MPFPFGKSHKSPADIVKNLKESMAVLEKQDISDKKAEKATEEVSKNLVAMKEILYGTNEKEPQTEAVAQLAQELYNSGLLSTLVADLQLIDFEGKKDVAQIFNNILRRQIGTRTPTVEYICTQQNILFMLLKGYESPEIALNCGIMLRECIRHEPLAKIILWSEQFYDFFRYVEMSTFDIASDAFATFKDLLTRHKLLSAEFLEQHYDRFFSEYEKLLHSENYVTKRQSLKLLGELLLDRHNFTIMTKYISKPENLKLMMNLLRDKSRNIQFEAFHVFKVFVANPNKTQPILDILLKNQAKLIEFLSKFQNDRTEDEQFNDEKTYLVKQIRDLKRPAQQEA
# SYK (human) = SYK (human) (UniProt P43405)
# TBK1 (human) = TBK1 (human) (UniProt Q9UHD2)
# TTK (human) = TTK (human) (UniProt P33981)
smiles,measurement,setting,value
N#Cc1c(O)c2c(-c3ccc(-c4ccccc4O)cc3)csc2[nH]c1=O,residual activity,[1]; compound 10.0 µM,94%
same,residual activity,[1]; compound 50.0 µM,62%
same,residual activity,[1]; compound 100.0 µM,78%
same,residual activity,[2]; compound 10.0 µM,56%
same,residual activity,[2]; compound 50.0 µM,37%
same,residual activity,[2]; compound 100.0 µM,11%
same,residual activity,CSNK2A1 (human); compound 10.0 µM,110%
same,residual activity,CSNK2A1 (human); compound 50.0 µM,95%
same,residual activity,CSNK2A1 (human); compound 100.0 µM,86%
same,residual activity,DYRK3 (human); compound 10.0 µM,54%
same,residual activity,DYRK3 (human); compound 50.0 µM,47%
same,residual activity,DYRK3 (human); compound 100.0 µM,6%
same,residual activity,EPHA2 (human); compound 10.0 µM,82%
same,residual activity,EPHA2 (human); compound 50.0 µM,64%
same,residual activity,EPHA2 (human); compound 100.0 µM,40%
same,residual activity,EPHB1 (human); compound 10.0 µM,110%
same,residual activity,EPHB1 (human); compound 100.0 µM,97%
same,residual activity,FGFR1 (human); compound 10.0 µM,109%
same,residual activity,FGFR1 (human); compound 50.0 µM,95%
same,residual activity,FGFR1 (human); compound 100.0 µM,50%
same,residual activity,GSK3B (human); compound 10.0 µM,80%
same,residual activity,GSK3B (human); compound 50.0 µM,17%
same,residual activity,GSK3B (human); compound 100.0 µM,46%
same,residual activity,INSR (human); compound 10.0 µM,103%
same,residual activity,INSR (human); compound 100.0 µM,69%
same,residual activity,INSRR (human); compound 10.0 µM,88%
same,residual activity,INSRR (human); compound 50.0 µM,90%
same,residual activity,INSRR (human); compound 100.0 µM,51%
same,residual activity,IRAK4 (human); compound 10.0 µM,82%
same,residual activity,IRAK4 (human); compound 100.0 µM,34%
same,residual activity,LCK (mouse); compound 10.0 µM,88%
same,residual activity,LCK (mouse); compound 50.0 µM,58%
same,residual activity,LCK (mouse); compound 100.0 µM,58%
same,residual activity,MAP2K1 (human); compound 10.0 µM,79%
same,residual activity,MAP2K1 (human); compound 50.0 µM,27%
same,residual activity,MAP2K1 (human); compound 100.0 µM,29%
same,residual activity,MAP2K6 (human); compound 10.0 µM,85%
same,residual activity,MAP2K6 (human); compound 100.0 µM,84%
same,residual activity,MAP3K9 (human); compound 10.0 µM,59%
same,residual activity,MAP3K9 (human); compound 100.0 µM,18%
same,residual activity,MAPK10 (human); compound 10.0 µM,75%
same,residual activity,MAPK10 (human); compound 50.0 µM,70%
same,residual activity,MAPK10 (human); compound 100.0 µM,62%
same,residual activity,MAPK11 (human); compound 10.0 µM,89%
same,residual activity,MAPK11 (human); compound 50.0 µM,84%
same,residual activity,MAPK11 (human); compound 100.0 µM,77%
same,residual activity,MAPK13 (human); compound 10.0 µM,107%
same,residual activity,MAPK13 (human); compound 50.0 µM,116%
same,residual activity,MAPK13 (human); compound 100.0 µM,124%
same,residual activity,MARK1 (human); compound 10.0 µM,59%
same,residual activity,MARK1 (human); compound 100.0 µM,68%
same,residual activity,MARK2 (human); compound 10.0 µM,64%
same,residual activity,MARK2 (human); compound 100.0 µM,49%
same,residual activity,MKNK1 (human); compound 10.0 µM,104%
same,residual activity,MKNK1 (human); compound 50.0 µM,66%
same,residual activity,MKNK1 (human); compound 100.0 µM,93%
same,residual activity,MYLK (human); compound 10.0 µM,76%
same,residual activity,MYLK (human); compound 50.0 µM,39%
same,residual activity,MYLK (human); compound 100.0 µM,20%
same,residual activity,NEK2 (human); compound 10.0 µM,73%
same,residual activity,NEK2 (human); compound 50.0 µM,52%
same,residual activity,NEK2 (human); compound 100.0 µM,19%
same,residual activity,NEK6 (human); compound 10.0 µM,104%
same,residual activity,NEK6 (human); compound 50.0 µM,94%
same,residual activity,NEK6 (human); compound 100.0 µM,137%
same,residual activity,[3]; compound 10.0 µM,94%
same,residual activity,[3]; compound 100.0 µM,63%
same,residual activity,PHKG1 (human); compound 10.0 µM,96%
same,residual activity,PHKG1 (human); compound 50.0 µM,65%
same,residual activity,PHKG1 (human); compound 100.0 µM,73%
same,residual activity,PIM2 (human); compound 10.0 µM,71%
same,residual activity,PIM2 (human); compound 50.0 µM,17%
same,residual activity,PIM2 (human); compound 100.0 µM,18%
same,residual activity,PIM3 (human); compound 10.0 µM,18%
same,residual activity,PIM3 (human); compound 50.0 µM,5%
same,residual activity,PIM3 (human); compound 100.0 µM,7%
same,residual activity,PKN2 (human); compound 10.0 µM,85%
same,residual activity,PKN2 (human); compound 50.0 µM,85%
same,residual activity,PKN2 (human); compound 100.0 µM,59%
same,residual activity,ROCK2 (rat); compound 10.0 µM,91%
same,residual activity,ROCK2 (rat); compound 50.0 µM,49%
same,residual activity,ROCK2 (rat); compound 100.0 µM,75%
same,residual activity,[4]; compound 10.0 µM,78%
same,residual activity,[4]; compound 50.0 µM,66%
same,residual activity,[4]; compound 100.0 µM,38%
same,residual activity,SRPK1 (human); compound 10.0 µM,107%
same,residual activity,SRPK1 (human); compound 50.0 µM,42%
same,residual activity,SRPK1 (human); compound 100.0 µM,35%
same,residual activity,[5]; compound 10.0 µM,86%
same,residual activity,[5]; compound 100.0 µM,65%
same,residual activity,SYK (human); compound 10.0 µM,106%
same,residual activity,SYK (human); compound 50.0 µM,36%
same,residual activity,SYK (human); compound 100.0 µM,42%
same,residual activity,TBK1 (human); compound 10.0 µM,67%
same,residual activity,TBK1 (human); compound 50.0 µM,55%
same,residual activity,TBK1 (human); compound 100.0 µM,29%
same,residual activity,TTK (human); compound 10.0 µM,76%
same,residual activity,TTK (human); compound 100.0 µM,48%
Cc1ccc(=O)n(-c2ccccc2)c1,residual activity,[1]; compound 1.0 µM,108%
same,residual activity,[1]; compound 10.0 µM,102%
same,residual activity,[2]; compound 1.0 µM,99%
same,residual activity,[2]; compound 10.0 µM,91%
same,residual activity,CSNK2A1 (human); compound 1.0 µM,98%
same,residual activity,CSNK2A1 (human); compound 10.0 µM,103%
same,residual activity,DYRK3 (human); compound 1.0 µM,103%
same,residual activity,DYRK3 (human); compound 10.0 µM,93%
same,residual activity,EPHA2 (human); compound 1.0 µM,113%
same,residual activity,EPHA2 (human); compound 10.0 µM,111%
same,residual activity,EPHB1 (human); compound 10.0 µM,104%
same,residual activity,FGFR1 (human); compound 1.0 µM,101%
same,residual activity,GSK3B (human); compound 1.0 µM,102%
same,residual activity,GSK3B (human); compound 10.0 µM,99%
same,residual activity,INSR (human); compound 1.0 µM,110%
same,residual activity,INSR (human); compound 10.0 µM,103%
same,residual activity,INSRR (human); compound 1.0 µM,104%
same,residual activity,INSRR (human); compound 10.0 µM,99%
same,residual activity,IRAK4 (human); compound 1.0 µM,83%
same,residual activity,IRAK4 (human); compound 10.0 µM,95%
same,residual activity,LCK (mouse); compound 1.0 µM,96%
same,residual activity,LCK (mouse); compound 10.0 µM,102%
same,residual activity,MAP2K1 (human); compound 1.0 µM,77%
same,residual activity,MAP2K1 (human); compound 10.0 µM,65%
same,residual activity,MAP2K6 (human); compound 1.0 µM,106%
same,residual activity,MAP2K6 (human); compound 10.0 µM,88%
same,residual activity,MAP3K9 (human); compound 1.0 µM,95%
same,residual activity,MAP3K9 (human); compound 10.0 µM,89%
same,residual activity,MAPK10 (human); compound 1.0 µM,83%
same,residual activity,MAPK10 (human); compound 10.0 µM,86%
same,residual activity,MAPK11 (human); compound 1.0 µM,120%
same,residual activity,MAPK11 (human); compound 10.0 µM,111%
same,residual activity,MAPK13 (human); compound 1.0 µM,97%
same,residual activity,MAPK13 (human); compound 10.0 µM,91%
same,residual activity,MARK1 (human); compound 1.0 µM,99%
same,residual activity,MARK1 (human); compound 10.0 µM,98%
same,residual activity,MARK2 (human); compound 1.0 µM,104%
same,residual activity,MARK2 (human); compound 10.0 µM,102%
same,residual activity,MKNK1 (human); compound 1.0 µM,101%
same,residual activity,MKNK1 (human); compound 10.0 µM,99%
same,residual activity,MYLK (human); compound 1.0 µM,102%
same,residual activity,MYLK (human); compound 10.0 µM,89%
same,residual activity,NEK2 (human); compound 1.0 µM,107%
same,residual activity,NEK2 (human); compound 10.0 µM,95%
same,residual activity,NEK6 (human); compound 1.0 µM,99%
same,residual activity,NEK6 (human); compound 10.0 µM,91%
same,residual activity,[3]; compound 1.0 µM,101%
same,residual activity,[3]; compound 10.0 µM,100%
same,residual activity,PHKG1 (human); compound 1.0 µM,103%
same,residual activity,PHKG1 (human); compound 10.0 µM,96%
same,residual activity,PIM2 (human); compound 1.0 µM,118%
same,residual activity,PIM2 (human); compound 10.0 µM,96%
same,residual activity,PIM3 (human); compound 1.0 µM,111%
same,residual activity,PIM3 (human); compound 10.0 µM,95%
same,residual activity,PKN2 (human); compound 1.0 µM,121%
same,residual activity,PKN2 (human); compound 10.0 µM,91%
same,residual activity,ROCK2 (rat); compound 1.0 µM,94%
same,residual activity,ROCK2 (rat); compound 10.0 µM,84%
same,residual activity,[4]; compound 1.0 µM,115%
same,residual activity,[4]; compound 10.0 µM,111%
same,residual activity,SRPK1 (human); compound 1.0 µM,95%
same,residual activity,SRPK1 (human); compound 10.0 µM,89%
same,residual activity,[5]; compound 1.0 µM,103%
same,residual activity,[5]; compound 10.0 µM,95%
same,residual activity,SYK (human); compound 1.0 µM,99%
same,residual activity,SYK (human); compound 10.0 µM,103%
same,residual activity,TBK1 (human); compound 1.0 µM,99%
same,residual activity,TBK1 (human); compound 10.0 µM,91%
same,residual activity,TTK (human); compound 1.0 µM,73%
same,residual activity,TTK (human); compound 10.0 µM,76%
